Details of series [1]: method as in doi:10.1200/JCO.2020.38.15_suppl.3500, PMID 26200936. Particulars: cited from earlier work.
Series [2] has as its system MDA-MB-231 cells. Kind of series: Drug combination assay with ZLC491. It counts as cell-based, human. The procedure:
(A) Transcription level of DDR genes in MDA-MB-231 cells determined by RT-qPCR upon the treatment with vehicle or ZLC491 at different doses for 12 h, ROR1 was used as a negative control; (B) immunoblotting of DDR proteins in MDA-MB-231 cells after the treatment of ZLC491 at different doses for 48 h; (C) cell antiproliferative activity of ZLC491 in multiple TNBC cells as well as several noncancerous cells. Cells were treated with the compound for 5 days; (D,E) antiproliferative potency of cisplatin or olaparib alone or combined with ZLC491 at different doses in MDA-MB-231 cells for 5 days. Data are plotted using the percentage of absorbance relative to DMSO controls. (F) IC50 values and combination index (CI) in drug combination assay. In this model, CI scores estimate the interaction between the two drugs. If CI < 1, the drugs have a synergistic effect and if CI > 1, the drugs have an antagonistic effect. CI = 1 means the drugs have an additive effect. ^aThe drug combination in the table refers to the starting concentration of the two combined drugs, that would both go through serial dilution when treating cells.
Tested cells were plated in 96-well or 384-well plates and incubated at 37 °C with or without 5% CO2. […] Cell proliferation was measured 5 days after compound treatment using Cell Counting Kit-8 (Selleck) according to the manufacturer’s instructions. […]

For series [3], the system named is TNBC cells and noncancerous cells. Kind of series: Cell proliferation assay of the negative control in multiple TNBC and noncancerous cells. It counts as cell-based, human. Particulars: multiple TNBC and noncancerous cell lines, 5 days. The method, then:
The antiproliferative effects of ZLC491 against TNBC cells were also evaluated. […] We thus investigated the synergistic effects of ZLC491 with DNA cross-linker cisplatin.
Tested cells were plated in 96-well or 384-well plates and incubated at 37 °C with or without 5% CO2. After overnight incubation, serial dilutions of compounds were added to the plate. Cell proliferation was measured 5 days after compound treatment using Cell Counting Kit-8 (Selleck) according to the manufacturer’s instructions.
Figure S3. Immunoblotting of CCNK in MDA-MB-231 cells treated with increasing concentrations of ZLC491 for 15 h.
Figure S4. Cell antiproliferative activity of ZLC491N in multiple TNBC cells as well as noncancerous cells. Cells were treated with the compound for 5 days. […]

Series [4] has as its system CDK12/13. Put plainly: Immunoblotting of CDK12/13 in MDA-MB-231 cells (time course, negative control, series comparison). It counts as cell-based, human. Particulars: 1 μM, 10 h. The method, then:
To further characterize the compound, we determined the half-degradation concentration (DC50) values of ZLC491 in MDA-MB-231 cells. […] We also treated MDA-MB-231 cells with 1 μM ZLC491 at various time points.
(A) Immunoblotting of CDK12 and CDK13 in MDA-MB-231 cells treated with increasing concentrations of ZLC491 for 15 h (left). Percent remaining CDK12 and CDK13 proteins were plotted for DC50 determination (right). Protein levels were quantified using ImageJ and normalized to corresponding α-tubulin, then plotted using Graphpad Prism 8.0. The data were representative of three independent experiments; (B) immunoblotting of CDK12 and CDK13 proteins in MDA-MB-231 cells treated with ZLC491 for various time points; immunoblotting of CDK12 and CDK13 in HCC38 (C) and MDA-MB-436 (D) cells treated with increasing concentrations of ZLC491 for 15 h. α-Tubulin was used as a loading control. TEXT PRINTED IN THE PICTURE: (A) ZLC491: MDA-MB-231: CDK12 DC50 = 0.032μM; MDA-MB-231: CDK13 DC50 = 0.028μM DOUBTS OF THE COPYIST ABOUT THIS PICTURE: ZLC491, CDK12 DC50: 0.032 read from small print, the digits 3 and 2 are uncertain / ZLC491, CDK13 DC50: 0.028 read from small print, the last digit may be 8, 6 or 3
Figure 4 ZLC491 induced CDK12/13 degradation in a CRBN- and proteasome-dependent fashion. […]

In series [5] the target is T1, CDK13 (Homo sapiens, UniProt Q14004).
T1 construct: Immunoblotting of CDK12 and CDK13 in MDA-MB-231 cells treated with increasing concentrations of ZLC491 for 15 h; endogenous in cells; host or cells: MDA-MB-231
T1 sequence (Q14004 whole entry): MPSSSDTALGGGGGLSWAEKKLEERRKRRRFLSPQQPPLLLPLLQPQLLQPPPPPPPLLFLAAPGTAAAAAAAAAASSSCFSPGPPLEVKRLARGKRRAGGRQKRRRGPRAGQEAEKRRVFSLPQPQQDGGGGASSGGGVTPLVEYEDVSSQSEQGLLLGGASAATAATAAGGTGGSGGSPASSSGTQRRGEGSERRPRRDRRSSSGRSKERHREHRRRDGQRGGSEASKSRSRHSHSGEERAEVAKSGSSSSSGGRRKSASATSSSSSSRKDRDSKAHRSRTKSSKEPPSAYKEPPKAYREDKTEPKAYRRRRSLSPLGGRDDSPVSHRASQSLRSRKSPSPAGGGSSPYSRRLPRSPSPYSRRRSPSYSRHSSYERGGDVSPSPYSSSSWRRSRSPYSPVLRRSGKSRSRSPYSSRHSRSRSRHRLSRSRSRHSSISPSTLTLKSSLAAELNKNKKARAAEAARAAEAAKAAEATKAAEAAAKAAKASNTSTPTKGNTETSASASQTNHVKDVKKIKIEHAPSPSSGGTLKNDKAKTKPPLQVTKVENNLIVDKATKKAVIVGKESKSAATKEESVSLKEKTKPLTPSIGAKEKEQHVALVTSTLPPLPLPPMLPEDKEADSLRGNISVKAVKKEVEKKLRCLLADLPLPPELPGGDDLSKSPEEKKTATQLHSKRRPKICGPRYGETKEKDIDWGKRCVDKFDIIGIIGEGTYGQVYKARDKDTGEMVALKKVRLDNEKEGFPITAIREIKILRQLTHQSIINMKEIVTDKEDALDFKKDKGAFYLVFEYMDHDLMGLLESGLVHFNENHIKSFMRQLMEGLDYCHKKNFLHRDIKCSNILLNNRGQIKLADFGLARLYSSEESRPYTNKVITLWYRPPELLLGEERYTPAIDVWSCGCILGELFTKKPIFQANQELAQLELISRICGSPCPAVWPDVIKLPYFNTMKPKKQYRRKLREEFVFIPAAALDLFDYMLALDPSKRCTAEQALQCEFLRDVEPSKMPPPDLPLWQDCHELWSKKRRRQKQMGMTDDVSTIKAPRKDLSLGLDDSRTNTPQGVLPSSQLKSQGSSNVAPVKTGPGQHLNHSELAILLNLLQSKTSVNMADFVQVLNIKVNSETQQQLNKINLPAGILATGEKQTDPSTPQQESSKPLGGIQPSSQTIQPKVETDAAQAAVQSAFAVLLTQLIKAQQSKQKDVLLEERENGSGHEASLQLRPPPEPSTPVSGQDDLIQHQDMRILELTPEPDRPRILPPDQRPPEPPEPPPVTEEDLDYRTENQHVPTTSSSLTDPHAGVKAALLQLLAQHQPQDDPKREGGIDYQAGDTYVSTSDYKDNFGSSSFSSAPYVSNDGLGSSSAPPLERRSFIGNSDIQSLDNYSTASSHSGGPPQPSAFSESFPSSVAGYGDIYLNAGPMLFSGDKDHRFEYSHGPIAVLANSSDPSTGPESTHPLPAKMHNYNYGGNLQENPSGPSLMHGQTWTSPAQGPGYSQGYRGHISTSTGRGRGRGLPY
T1 sequence (O75909 whole entry partner): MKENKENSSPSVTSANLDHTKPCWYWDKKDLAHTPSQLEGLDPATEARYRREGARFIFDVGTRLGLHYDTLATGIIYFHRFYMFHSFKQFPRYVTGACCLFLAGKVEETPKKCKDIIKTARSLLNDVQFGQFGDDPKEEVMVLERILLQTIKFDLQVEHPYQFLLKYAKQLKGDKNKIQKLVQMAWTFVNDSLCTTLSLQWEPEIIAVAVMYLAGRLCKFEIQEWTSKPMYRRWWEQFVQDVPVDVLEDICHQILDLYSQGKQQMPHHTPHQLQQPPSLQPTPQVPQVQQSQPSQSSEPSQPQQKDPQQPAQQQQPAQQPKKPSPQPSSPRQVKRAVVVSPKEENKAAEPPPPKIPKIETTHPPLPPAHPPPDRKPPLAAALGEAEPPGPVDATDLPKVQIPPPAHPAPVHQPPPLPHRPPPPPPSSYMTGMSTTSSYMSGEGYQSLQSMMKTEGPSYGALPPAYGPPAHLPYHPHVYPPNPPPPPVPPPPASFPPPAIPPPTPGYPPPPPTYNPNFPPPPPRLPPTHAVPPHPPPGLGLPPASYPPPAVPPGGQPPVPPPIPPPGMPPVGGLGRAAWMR
Kind of series: CDK13 degradation in MDA-MB-231 cells by immunoblotting.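 Note: percent of CDK13 protein degraded relative to DMSO control.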 It counts as cell-based. The settings on record: MDA-MB-231 cells, 0.3 μM, 15 h, immunoblotting, normalized against α-tubulin. The essentials:
(§1)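 MDA-MB-231 cells treated with ZLC491 at increasing concentrations for 15 h (screening at 0.3 μM; time course at 1 μM); SDS lysates immunoblotted, band intensities normalised to α-tubulin. DC50 taken from percent remaining protein versus concentration; representative of three independent experiments.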

Series [6] deals with CDK12 (Homo sapiens, UniProt Q9NYV4). Kind of series: CDK12 degradation in MDA-MB-231 cells by immunoblotting. The format is cell-based. Further details: Immunoblotting of CDK12 and CDK13 in MDA-MB-231 cells treated with increasing concentrations of ZLC491 for 15 h; endogenous in cells; host or cells: MDA-MB-231. Particulars: MDA-MB-231 cells, 0.3 μM, 15 h, immunoblotting, normalized against α-tubulin. The essentials: as §1
Chain of CDK12 (Q9NYV4 whole entry): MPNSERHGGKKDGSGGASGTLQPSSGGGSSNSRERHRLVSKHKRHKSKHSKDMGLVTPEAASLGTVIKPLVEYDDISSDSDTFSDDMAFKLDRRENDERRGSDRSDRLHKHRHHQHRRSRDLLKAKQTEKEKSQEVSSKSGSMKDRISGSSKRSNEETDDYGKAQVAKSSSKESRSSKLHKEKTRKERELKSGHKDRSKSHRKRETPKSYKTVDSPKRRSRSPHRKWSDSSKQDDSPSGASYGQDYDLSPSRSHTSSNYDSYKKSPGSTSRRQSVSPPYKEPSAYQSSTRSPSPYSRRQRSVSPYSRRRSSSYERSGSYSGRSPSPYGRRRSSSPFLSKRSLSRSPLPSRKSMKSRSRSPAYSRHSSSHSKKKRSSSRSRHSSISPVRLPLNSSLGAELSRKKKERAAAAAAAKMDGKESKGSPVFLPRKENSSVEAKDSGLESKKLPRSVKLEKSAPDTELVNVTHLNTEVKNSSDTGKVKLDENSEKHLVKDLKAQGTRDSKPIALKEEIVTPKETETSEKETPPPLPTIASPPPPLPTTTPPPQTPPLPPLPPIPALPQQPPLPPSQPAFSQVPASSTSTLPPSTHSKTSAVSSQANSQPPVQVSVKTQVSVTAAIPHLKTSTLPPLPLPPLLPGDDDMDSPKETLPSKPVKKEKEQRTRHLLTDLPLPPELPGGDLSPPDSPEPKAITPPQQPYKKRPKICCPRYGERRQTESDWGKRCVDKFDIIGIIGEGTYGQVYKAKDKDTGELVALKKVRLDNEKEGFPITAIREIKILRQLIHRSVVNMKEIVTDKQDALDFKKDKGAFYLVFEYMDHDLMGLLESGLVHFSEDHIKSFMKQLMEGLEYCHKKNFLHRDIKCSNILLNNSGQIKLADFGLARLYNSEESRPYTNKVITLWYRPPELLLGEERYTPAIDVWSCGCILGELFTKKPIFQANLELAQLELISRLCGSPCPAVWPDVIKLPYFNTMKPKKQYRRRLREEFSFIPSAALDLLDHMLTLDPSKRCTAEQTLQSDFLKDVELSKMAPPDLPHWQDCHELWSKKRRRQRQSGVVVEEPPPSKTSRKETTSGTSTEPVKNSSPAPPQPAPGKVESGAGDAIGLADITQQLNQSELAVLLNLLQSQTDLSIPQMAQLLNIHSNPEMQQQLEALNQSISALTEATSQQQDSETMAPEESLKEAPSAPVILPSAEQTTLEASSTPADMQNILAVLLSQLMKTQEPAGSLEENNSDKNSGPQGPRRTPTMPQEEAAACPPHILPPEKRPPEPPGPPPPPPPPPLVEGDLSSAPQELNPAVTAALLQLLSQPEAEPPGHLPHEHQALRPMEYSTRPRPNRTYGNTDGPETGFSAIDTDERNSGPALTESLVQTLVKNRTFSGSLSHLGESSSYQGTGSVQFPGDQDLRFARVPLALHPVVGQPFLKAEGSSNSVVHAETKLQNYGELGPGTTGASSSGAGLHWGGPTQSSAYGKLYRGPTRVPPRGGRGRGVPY
Chain of CDK12 (O75909 whole entry partner): as the sequence (O75909 whole entry partner) above
For orientation: A western blot detects proteins with antibodies after separation by electrophoresis.

Details of series [7]: method as in PMID 35938508. The settings on record: rats; cited from earlier work.

Entries after “also recorded” stand apart in the source; their conditions may differ. Like-named read-outs stand apart in the source and are kept apart here.

As to `N#Cc1ccc(O[C@H]2CC[C@H](NC(=O)c3ccc(N4CCC(CN5CCN(c6cc7c(cc6F)C(=O)N(C6CCC(=O)NC6=O)C7=O)CC5)CC4)nn3)CC2)cc1Cl` (stereo partly drawn) [ARV-110], the oral bioavailability entry in series [1] is listed as “good oral bioavailability”. For `N.N.[Cl][Pt][Cl]` [Cisplatin, cisplatin], the “interaction with ZLC491 in dose–response assays” value in series [2] (MDA-MB-231 cells, 5 days) is on record as “potent synergy”.

In general, IC50 refers to the concentration needed to halve the response being measured. Turning to `O=C(c1cc(Cc2n[nH]c(=O)c3ccccc23)ccc1F)N1CCN(C(=O)C2CC2)CC1` [Olaparib, olaparib], the IC50 in series [2] (Homo sapiens, 120 h, drug A alone, starting concentration 25 μM, MDA-MB-231, 5 days, read-out: IC50 (μM), Drug A: ZLC491 25μM: 0μM) stood at 7.24 µM. As for `CN1C(=O)CCC(N2C(=O)c3cc(F)c(N4CCC(N5CCN(c6ccc(N(C(=O)NCc7ccccc7)[C@H]7CC[C@H](Nc8ccc(C#N)cn8)CC7)cc6)CC5)CC4)cc3C2=O)C1=O` (stereo partly drawn) [ZLC491N, 3-Benzyl-1-((1r,4r)-4-((5-cyanopyridin-2-yl)amino)cyclohexyl)-1-(4-(4-(1-(6-fluoro-2-(1-methyl-2,6-dioxopiperidin-3-yl)-1,3-dioxoisoindolin-5-yl)piperidin-4-yl)piperazin-1-yl)phenyl)urea], the antiproliferative effects result in series [3] was “no antiproliferative effects”. Besides, the “degradative effect on CDK12/13” value in series [4] is “no degradative effect”. Take `N#Cc1ccc(N[C@H]2CC[C@H](N(C(=O)NCc3ccccc3)c3ccc(N4CCN(C(=O)CNc5ccc6c(c5)C(=O)N(C5CCC(=O)NC5=O)C6=O)CC4)cc3)CC2)nc1` (stereo partly drawn) [compound 3]: the “Protein Degradation (%DMSO control, 0.3 μM) CDK13” value in series [5] was 84%. Moreover, the “Protein Degradation (%DMSO control, 0.3 μM) CDK12” value in series [6] was determined as 75%. Also, in series [7], the clearance entry is on record as “high” and the oral bioavailability entry is listed as “not orally bioavailable; also recorded: nondetectable”.

The record behind these values is PMC11513923, “Discovery of ZLC491 as a Potent, Selective, and Orally Bioavailable CDK12/13 PROTAC Degrader” (Journal of Medicinal Chemistry, 2024).
